In data set [1] the test system is human MDA-MB-436 breast cancer xenograft. Briefly: MDA-MB-436 breast cancer xenograft model. The class given is in vivo, mice. How it is done: (§1) The oral and intraperitoneal application volume was 10 ml/kg. The time interval between two applications per day was 6-7 h. […] Changes in the body weight were a measure of treatment-related toxicity (>10%=critical, stop of treatment until recovery, >20%=toxic, termination). The tumor area was detected by means of an electronic caliper gauge [length (mm)×width (mm)]. In vivo anti-tumor efficacy is presented as T/C ratio (Treatment/Control) calculated with tumor areas at study end by the formula [(tumor area of treatment group at day x)−(tumor area of treatment group at day before first treatment)]/[(tumor area control group at day x)−(tumor area of control group at day before first treatment)]. […] Statistical analysis was assessed using SigmaStat software. A one-way analysis of variance was performed and differences to the control were compared by a pair-wise comparison procedure (Dunn's method).

Another data set relates to NCI-H460. Kind of data set: In vitro anti-proliferation (Cell Titre-Glo), NCI-H460. Format: cell-based. Particulars: Homo sapiens; NCI-H460, lung; 96 hours of incubation; mono-treatment. How it is done:
(§2) Tumor cells (Table 1) were propagated in a humidified 37° C. incubator in their respective growth medium supplemented 10% fetal calf serum. […] Test compounds were added to the wells using a Tecan-HP Digital Dispenser. After 96 hours of incubation cell viability was assessed with the Cell Titre-Glo Luminescent Cell Viability Assay (Promega).

A further data set has as its system HT-144. Briefly: In vitro anti-proliferation (Cell Titre-Glo), HT-144. Format: cell-based. To be noted: Homo sapiens; HT-144, melanoma; 96 hours of incubation; mono-treatment. How it is done: as §2
Data set [2] relates to human 22Rv1 prostate cancer xenograft. Kind of data set: 22Rv1 prostate cancer xenograft model. Format: in vivo, mice. How it is done: as §1
Another data set deals with MDA-MB-436. Kind of data set: In vitro anti-proliferation (Cell Titre-Glo), MDA-MB-436. The class given is cell-based. To be noted: Homo sapiens; MDA-MB-436, breast; 96 hours of incubation; mono-treatment. How it is done:
as §2

The next data set relates to IGR-OV-1. Kind of data set: In vitro anti-proliferation (Cell Titre-Glo), IGR-OV-1. Format: cell-based. Particulars: Homo sapiens, IGROV-1; IGR-OV-1, ovary; 96 hours of incubation; mono-treatment. How it is done:
as §2

Structures are written as SMILES. Marks after values point to notes of the source that are not given here.

Regarding `O=C(c1cc(Cc2n[nH]c(=O)c3ccccc23)ccc1F)N1CCN(C(=O)C2CC2)CC1` [Compound B, Olaparib], the anti-tumor efficacy entry in data set [1] (MDA-MB-436 human breast cancer model, result in words) is given as “good anti-tumor efficacy”; in data set [2] (22Rv1 prostate cancer model, result in words), “no anti-tumor efficacy”. In addition, the “Max. weight loss (%)” value in data set [1] (body weight vs start of treatment, Compound A 20 mg/kg 2QD p.o. 3 on/4 off, Compound B 50 mg/kg QD i.p.) is reported as −3%; in data set [2] (body weight vs start of treatment, Compound A 20 mg/kg 2QD p.o. 3 on/4 off, Compound B 20 mg/kg QD i.p.), −3%. Further, the T/C in data set [1] (tumor area at study end, NOD/Scid mice, Compound A 20 mg/kg 2QD p.o. 3 on/4 off, Compound B 50 mg/kg QD i.p.) is 0.29^*; in data set [2] (tumor area at study end, male Fox Chase SCID mice, Compound A 20 mg/kg 2QD p.o. 3 on/4 off, Compound B 20 mg/kg QD i.p.) it was 1.18. The IC50 in the data set with NCI-H460 was found to be 28 µM; with HT-144, 23 µM; with MDA-MB-436, 6.5 µM; in the data set on IGR-OV-1, 22 µM.

These data come from patent publication US11660301B2, “Combination of ATR kinase inhibitors with PARP inhibitors” (Bayer Pharma Aktiengesellschaft, priority 2017, dated 2023).
